Measured values: ChEMBL document CHEMBL3421558, “Structure activity relationship of substituted 1,5-naphthyridine analogs of oxabicyclooctane-linked novel bacterial topoisomerase inhibitors as broad-spectrum antibacterial agents (Part-4)” (Bioorg Med Chem Lett, 2015)
≈ marks a conversion by molar mass, not a printed value.

System: Escherichia coli
Assay: Antimicrobial activity against Escherichia coli ATCC 25922 by micro broth dilution or agar based method
Type: functional
Conditions: Escherichia coli, ATCC 25922; read-out: MIC
`COc1ccc2nccc(CCC34CCC(NCc5ccc6c(n5)NC(=O)CO6)(CC3)CO4)c2n1` showed an MIC of 2 µg/mL (≈ 4.21 µM). `CCOc1cc(C)c2ncc(F)c(CCC34CCC(NCc5ccc6c(n5)NC(=O)CO6)(CC3)CO4)c2n1` showed an MIC of 8 µg/mL (≈ 15.3 µM). Compound `COc1ccc2nc(N3CCNCC3)c(F)c(CCC34CCC(NCc5ccc6c(n5)NC(=O)CO6)(CC3)CO4)c2n1` has an MIC of 8 µg/mL (≈ 13.8 µM). For `COc1ccc2nc(N3CCN(C)CC3)c(F)c(CCC34CCC(NCc5ccc6c(n5)NC(=O)CO6)(CC3)CO4)c2n1`, the MIC was 32 µg/mL (≈ 54.1 µM). Work on `Cc1cc(S(C)(=O)=O)nc2c(CCC34CCC(NCc5ccc6c(n5)NC(=O)CO6)(CC3)CO4)c(F)cnc12` yielded an MIC of 8 µg/mL (≈ 14.4 µM). In the case of `Cc1cc(S(C)(=O)=O)nc2c(CCC34CCC(NCc5ccc6c(n5)NC(=O)CO6)(CC3)CO4)ccnc12`, the MIC is reported as 32 µg/mL (≈ 59.5 µM). For `O=C1COc2ccc(CNC34CCC(CCc5c(F)cnc6ccc(N7CCS(=O)(=O)CC7)nc56)(CC3)OC4)nc2N1`, the MIC was 16 µg/mL (≈ 26.8 µM).

System: Streptococcus pneumoniae
Assay: Antimicrobial activity against Streptococcus pneumoniae IID553 by micro broth dilution or agar based method
Type: functional
Conditions: Streptococcus pneumoniae, IID553; read-out: MIC
`COc1ccc2nccc(CCC34CCC(NCc5ccc6c(n5)NC(=O)CO6)(CC3)CO4)c2n1` gave an MIC of 0.5 µg/mL (≈ 1.05 µM). Compound `CCOc1cc(C)c2ncc(F)c(CCC34CCC(NCc5ccc6c(n5)NC(=O)CO6)(CC3)CO4)c2n1` has an MIC of 1 µg/mL (≈ 1.92 µM). Compound `COc1ccc2nc(N3CCNCC3)c(F)c(CCC34CCC(NCc5ccc6c(n5)NC(=O)CO6)(CC3)CO4)c2n1` has an MIC of 8 µg/mL (≈ 13.8 µM). For `COc1ccc2nc(N3CCN(C)CC3)c(F)c(CCC34CCC(NCc5ccc6c(n5)NC(=O)CO6)(CC3)CO4)c2n1`, the MIC was 32 µg/mL (≈ 54.1 µM). For `Cc1cc(S(C)(=O)=O)nc2c(CCC34CCC(NCc5ccc6c(n5)NC(=O)CO6)(CC3)CO4)c(F)cnc12`, the MIC was 4 µg/mL (≈ 7.2 µM). `Cc1cc(S(C)(=O)=O)nc2c(CCC34CCC(NCc5ccc6c(n5)NC(=O)CO6)(CC3)CO4)ccnc12` showed an MIC of 16 µg/mL (≈ 29.8 µM). `O=C1COc2ccc(CNC34CCC(CCc5c(F)cnc6ccc(N7CCS(=O)(=O)CC7)nc56)(CC3)OC4)nc2N1` showed an MIC of 4 µg/mL (≈ 6.7 µM).

System: Staphylococcus aureus
Assay: Antimicrobial activity against methicillin-resistant Staphylococcus aureus OIT971 by micro broth dilution or agar based method
Type: functional
Conditions: not given
For `COc1ccc2nccc(CCC34CCC(NCc5ccc6c(n5)NC(=O)CO6)(CC3)CO4)c2n1`, the MIC was 0.031 µg/mL (≈ 0.0652 µM). For `CCOc1cc(C)c2ncc(F)c(CCC34CCC(NCc5ccc6c(n5)NC(=O)CO6)(CC3)CO4)c2n1`, the MIC was 0.031 µg/mL (≈ 0.0594 µM). `COc1ccc2nc(N3CCNCC3)c(F)c(CCC34CCC(NCc5ccc6c(n5)NC(=O)CO6)(CC3)CO4)c2n1` gave an MIC of 8 µg/mL (≈ 13.8 µM). For `COc1ccc2nc(N3CCN(C)CC3)c(F)c(CCC34CCC(NCc5ccc6c(n5)NC(=O)CO6)(CC3)CO4)c2n1`, the MIC was 16 µg/mL (≈ 27 µM). With `Cc1cc(S(C)(=O)=O)nc2c(CCC34CCC(NCc5ccc6c(n5)NC(=O)CO6)(CC3)CO4)c(F)cnc12` the MIC was 0.125 µg/mL (≈ 0.225 µM). `Cc1cc(S(C)(=O)=O)nc2c(CCC34CCC(NCc5ccc6c(n5)NC(=O)CO6)(CC3)CO4)ccnc12` showed an MIC of 1 µg/mL (≈ 1.86 µM). In the case of `O=C1COc2ccc(CNC34CCC(CCc5c(F)cnc6ccc(N7CCS(=O)(=O)CC7)nc56)(CC3)OC4)nc2N1`, the MIC is reported as 1 µg/mL (≈ 1.68 µM).

System: not listed separately
Assay: Oral bioavailability in C57BL/6 mouse at 10 mg/kg
Type: ADME, organism-based
Conditions: in vivo
`COc1ccc2nccc(CCC34CCC(NCc5ccc6c(n5)NC(=O)CO6)(CC3)CO4)c2n1` gave a bioavailability of 30.4%.

System: Acinetobacter baumannii
Assay: Antimicrobial activity against Acinetobacter baumannii IID876 by micro broth dilution or agar based method
Type: functional
Conditions: Acinetobacter baumannii, IID876; read-out: MIC
In the case of `COc1ccc2nccc(CCC34CCC(NCc5ccc6c(n5)NC(=O)CO6)(CC3)CO4)c2n1`, the MIC is reported as 2 µg/mL (≈ 4.21 µM). Compound `CCOc1cc(C)c2ncc(F)c(CCC34CCC(NCc5ccc6c(n5)NC(=O)CO6)(CC3)CO4)c2n1` has an MIC of 4 µg/mL (≈ 7.67 µM). With `COc1ccc2nc(N3CCNCC3)c(F)c(CCC34CCC(NCc5ccc6c(n5)NC(=O)CO6)(CC3)CO4)c2n1` the MIC was 8 µg/mL (≈ 13.8 µM). In the case of `COc1ccc2nc(N3CCN(C)CC3)c(F)c(CCC34CCC(NCc5ccc6c(n5)NC(=O)CO6)(CC3)CO4)c2n1`, the MIC is reported as 32 µg/mL (≈ 54.1 µM). Compound `Cc1cc(S(C)(=O)=O)nc2c(CCC34CCC(NCc5ccc6c(n5)NC(=O)CO6)(CC3)CO4)c(F)cnc12` has an MIC of 2 µg/mL (≈ 3.6 µM). For `Cc1cc(S(C)(=O)=O)nc2c(CCC34CCC(NCc5ccc6c(n5)NC(=O)CO6)(CC3)CO4)ccnc12`, the MIC was 16 µg/mL (≈ 29.8 µM). For `O=C1COc2ccc(CNC34CCC(CCc5c(F)cnc6ccc(N7CCS(=O)(=O)CC7)nc56)(CC3)OC4)nc2N1`, the MIC was 16 µg/mL (≈ 26.8 µM).

System: Pseudomonas aeruginosa
Assay: Antimicrobial activity against Pseudomonas aeruginosa PAO1 by micro broth dilution or agar based method
Type: functional
Conditions: Pseudomonas aeruginosa, PAO1; read-out: MIC
`COc1ccc2nccc(CCC34CCC(NCc5ccc6c(n5)NC(=O)CO6)(CC3)CO4)c2n1` showed an MIC of 8 µg/mL (≈ 16.8 µM). `CCOc1cc(C)c2ncc(F)c(CCC34CCC(NCc5ccc6c(n5)NC(=O)CO6)(CC3)CO4)c2n1` showed an MIC of 32 µg/mL (≈ 61.4 µM). `COc1ccc2nc(N3CCNCC3)c(F)c(CCC34CCC(NCc5ccc6c(n5)NC(=O)CO6)(CC3)CO4)c2n1` showed an MIC of 8 µg/mL (≈ 13.8 µM). `COc1ccc2nc(N3CCN(C)CC3)c(F)c(CCC34CCC(NCc5ccc6c(n5)NC(=O)CO6)(CC3)CO4)c2n1` gave an MIC of 32 µg/mL (≈ 54.1 µM). Compound `Cc1cc(S(C)(=O)=O)nc2c(CCC34CCC(NCc5ccc6c(n5)NC(=O)CO6)(CC3)CO4)c(F)cnc12` has an MIC of 32 µg/mL (≈ 57.6 µM). `Cc1cc(S(C)(=O)=O)nc2c(CCC34CCC(NCc5ccc6c(n5)NC(=O)CO6)(CC3)CO4)ccnc12` showed an MIC of 32 µg/mL (≈ 59.5 µM). In the case of `O=C1COc2ccc(CNC34CCC(CCc5c(F)cnc6ccc(N7CCS(=O)(=O)CC7)nc56)(CC3)OC4)nc2N1`, the MIC is reported as 16 µg/mL (≈ 26.8 µM).

System: not listed separately
Assay: Volume of distribution at steady state in C57BL/6 mouse at 1 mg/kg, iv or 10 mg/kg, po
Type: ADME, organism-based
Conditions: in vivo, read-out: Vdss
Work on `COc1ccc2nccc(CCC34CCC(NCc5ccc6c(n5)NC(=O)CO6)(CC3)CO4)c2n1` yielded a Vd of 5.95 L/kg.

Biological target: Voltage-gated inwardly rectifying potassium channel KCNH2 (Homo sapiens, UniProt Q12809)
Sequence (Q12809 whole entry): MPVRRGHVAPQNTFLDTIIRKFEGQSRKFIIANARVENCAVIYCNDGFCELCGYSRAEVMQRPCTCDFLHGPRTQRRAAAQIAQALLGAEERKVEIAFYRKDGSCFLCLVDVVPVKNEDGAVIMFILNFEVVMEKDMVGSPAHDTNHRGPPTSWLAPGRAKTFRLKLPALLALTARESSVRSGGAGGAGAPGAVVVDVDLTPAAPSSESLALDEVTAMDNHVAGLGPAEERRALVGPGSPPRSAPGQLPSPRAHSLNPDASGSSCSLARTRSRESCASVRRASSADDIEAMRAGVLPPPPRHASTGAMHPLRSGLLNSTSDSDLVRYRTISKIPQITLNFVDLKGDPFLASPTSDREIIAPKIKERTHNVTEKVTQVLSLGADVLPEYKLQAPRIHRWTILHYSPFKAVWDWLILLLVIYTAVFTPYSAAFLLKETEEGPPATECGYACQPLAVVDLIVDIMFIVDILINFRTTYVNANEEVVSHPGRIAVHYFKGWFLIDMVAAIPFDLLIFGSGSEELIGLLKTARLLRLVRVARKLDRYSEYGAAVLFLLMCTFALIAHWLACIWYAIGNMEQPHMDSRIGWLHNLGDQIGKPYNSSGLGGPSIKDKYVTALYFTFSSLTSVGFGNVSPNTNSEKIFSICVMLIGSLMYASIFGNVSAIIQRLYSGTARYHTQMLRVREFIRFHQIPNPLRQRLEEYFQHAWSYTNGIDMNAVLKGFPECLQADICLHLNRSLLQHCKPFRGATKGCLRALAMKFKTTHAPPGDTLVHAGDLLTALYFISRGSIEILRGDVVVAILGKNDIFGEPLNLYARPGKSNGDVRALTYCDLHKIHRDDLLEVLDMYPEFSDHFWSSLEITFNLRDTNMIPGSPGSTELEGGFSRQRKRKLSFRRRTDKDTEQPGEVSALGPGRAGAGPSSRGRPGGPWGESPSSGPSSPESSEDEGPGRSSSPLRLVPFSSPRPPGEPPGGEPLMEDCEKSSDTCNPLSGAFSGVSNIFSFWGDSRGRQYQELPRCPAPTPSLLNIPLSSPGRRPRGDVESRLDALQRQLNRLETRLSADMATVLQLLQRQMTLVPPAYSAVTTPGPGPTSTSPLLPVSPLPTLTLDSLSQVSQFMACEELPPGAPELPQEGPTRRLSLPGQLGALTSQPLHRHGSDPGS
Assay: Inhibition of MK499 binding to human ERG
Conditions: not given
`CCOc1cc(C)c2ncc(F)c(CCC34CCC(NCc5ccc6c(n5)NC(=O)CO6)(CC3)CO4)c2n1` gave an IC50 of 1.19 µM. With `Cc1cc(S(C)(=O)=O)nc2c(CCC34CCC(NCc5ccc6c(n5)NC(=O)CO6)(CC3)CO4)c(F)cnc12` the IC50 was 12.4 µM. Compound `Cc1cc(S(C)(=O)=O)nc2c(CCC34CCC(NCc5ccc6c(n5)NC(=O)CO6)(CC3)CO4)ccnc12` has an IC50 of 6.71 µM.

System: Staphylococcus aureus
Assay: Potency index, ratio of MIC for quinolone-resistant Staphylococcus aureus MS5935 to MIC for quinolone-[…]
Type: functional
Conditions: not given
In the case of `CCOc1cc(C)c2ncc(F)c(CCC34CCC(NCc5ccc6c(n5)NC(=O)CO6)(CC3)CO4)c2n1`, the Ratio is reported as <4. With `COc1ccc2nc(N3CCNCC3)c(F)c(CCC34CCC(NCc5ccc6c(n5)NC(=O)CO6)(CC3)CO4)c2n1` the Ratio was <4. With `COc1ccc2nc(N3CCN(C)CC3)c(F)c(CCC34CCC(NCc5ccc6c(n5)NC(=O)CO6)(CC3)CO4)c2n1` the Ratio was <4. For `Cc1cc(S(C)(=O)=O)nc2c(CCC34CCC(NCc5ccc6c(n5)NC(=O)CO6)(CC3)CO4)c(F)cnc12`, the Ratio was <4. In the case of `Cc1cc(S(C)(=O)=O)nc2c(CCC34CCC(NCc5ccc6c(n5)NC(=O)CO6)(CC3)CO4)ccnc12`, the Ratio is reported as <4. With `O=C1COc2ccc(CNC34CCC(CCc5c(F)cnc6ccc(N7CCS(=O)(=O)CC7)nc56)(CC3)OC4)nc2N1` the Ratio was <4.

System: Mus musculus
Assay: Dose normalized AUC in C57BL/6 mouse at 1 mg/kg, iv
Type: ADME, organism-based
Parameters: dose 1 mg/kg, route intravenous
Conditions: in vivo
Work on `COc1ccc2nccc(CCC34CCC(NCc5ccc6c(n5)NC(=O)CO6)(CC3)CO4)c2n1` yielded an AUC/dose of 0.86 µM·h/mg/kg.

System: not listed separately
Assay: Plasma clearance in C57BL/6 mouse at 1 mg/kg, iv or 10 mg/kg, po
Type: ADME, organism-based
Conditions: not given
`COc1ccc2nccc(CCC34CCC(NCc5ccc6c(n5)NC(=O)CO6)(CC3)CO4)c2n1` showed a clearance of 40.8 mL/min/kg.

System: Staphylococcus aureus
Assay: Antimicrobial activity against Staphylococcus aureus Smith by micro broth dilution or agar based method
Type: functional
Conditions: Staphylococcus aureus, Smith; read-out: MIC
Compound `COc1ccc2nccc(CCC34CCC(NCc5ccc6c(n5)NC(=O)CO6)(CC3)CO4)c2n1` has an MIC of 0.031 µg/mL (≈ 0.0652 µM). Work on `CCOc1cc(C)c2ncc(F)c(CCC34CCC(NCc5ccc6c(n5)NC(=O)CO6)(CC3)CO4)c2n1` yielded an MIC of 0.063 µg/mL (≈ 0.121 µM). For `COc1ccc2nc(N3CCNCC3)c(F)c(CCC34CCC(NCc5ccc6c(n5)NC(=O)CO6)(CC3)CO4)c2n1`, the MIC was 8 µg/mL (≈ 13.8 µM). `COc1ccc2nc(N3CCN(C)CC3)c(F)c(CCC34CCC(NCc5ccc6c(n5)NC(=O)CO6)(CC3)CO4)c2n1` showed an MIC of 32 µg/mL (≈ 54.1 µM). `Cc1cc(S(C)(=O)=O)nc2c(CCC34CCC(NCc5ccc6c(n5)NC(=O)CO6)(CC3)CO4)c(F)cnc12` gave an MIC of 0.125 µg/mL (≈ 0.225 µM). With `Cc1cc(S(C)(=O)=O)nc2c(CCC34CCC(NCc5ccc6c(n5)NC(=O)CO6)(CC3)CO4)ccnc12` the MIC was 1 µg/mL (≈ 1.86 µM). Compound `O=C1COc2ccc(CNC34CCC(CCc5c(F)cnc6ccc(N7CCS(=O)(=O)CC7)nc56)(CC3)OC4)nc2N1` has an MIC of 1 µg/mL (≈ 1.68 µM).

System: Enterococcus faecium
Assay: Antimicrobial activity against VanA expressing vancomycin-resistant Enterococcus faecium by micro broth dilution or agar based method
Type: functional
Conditions: Enterococcus faecium; read-out: MIC
For `COc1ccc2nccc(CCC34CCC(NCc5ccc6c(n5)NC(=O)CO6)(CC3)CO4)c2n1`, the MIC was 1 µg/mL (≈ 2.1 µM). For `CCOc1cc(C)c2ncc(F)c(CCC34CCC(NCc5ccc6c(n5)NC(=O)CO6)(CC3)CO4)c2n1`, the MIC was 4 µg/mL (≈ 7.67 µM). In the case of `COc1ccc2nc(N3CCNCC3)c(F)c(CCC34CCC(NCc5ccc6c(n5)NC(=O)CO6)(CC3)CO4)c2n1`, the MIC is reported as 8 µg/mL (≈ 13.8 µM). Compound `COc1ccc2nc(N3CCN(C)CC3)c(F)c(CCC34CCC(NCc5ccc6c(n5)NC(=O)CO6)(CC3)CO4)c2n1` has an MIC of 32 µg/mL (≈ 54.1 µM). Compound `Cc1cc(S(C)(=O)=O)nc2c(CCC34CCC(NCc5ccc6c(n5)NC(=O)CO6)(CC3)CO4)c(F)cnc12` has an MIC of 4 µg/mL (≈ 7.2 µM). Compound `Cc1cc(S(C)(=O)=O)nc2c(CCC34CCC(NCc5ccc6c(n5)NC(=O)CO6)(CC3)CO4)ccnc12` has an MIC of 16 µg/mL (≈ 29.8 µM). Work on `O=C1COc2ccc(CNC34CCC(CCc5c(F)cnc6ccc(N7CCS(=O)(=O)CC7)nc56)(CC3)OC4)nc2N1` yielded an MIC of 16 µg/mL (≈ 26.8 µM).

System: not listed separately
Assay: Half life in C57BL/6 mouse at 1 mg/kg, iv or 10 mg/kg, po
Type: ADME, organism-based
Conditions: in vivo
Work on `COc1ccc2nccc(CCC34CCC(NCc5ccc6c(n5)NC(=O)CO6)(CC3)CO4)c2n1` yielded a half-life of 7.97 h.
